This is an account of results in BindingDB's records for doi:10.1021/acs.jnatprod.1c00014 (Jiangsu University of Science and Technology, 2021).

The IC50 is the concentration at which inhibition is half-maximal. High values mean a need for much substance, low ones inhibition by little substance.

Maltase-glucoamylase, sequence (O43451 whole entry): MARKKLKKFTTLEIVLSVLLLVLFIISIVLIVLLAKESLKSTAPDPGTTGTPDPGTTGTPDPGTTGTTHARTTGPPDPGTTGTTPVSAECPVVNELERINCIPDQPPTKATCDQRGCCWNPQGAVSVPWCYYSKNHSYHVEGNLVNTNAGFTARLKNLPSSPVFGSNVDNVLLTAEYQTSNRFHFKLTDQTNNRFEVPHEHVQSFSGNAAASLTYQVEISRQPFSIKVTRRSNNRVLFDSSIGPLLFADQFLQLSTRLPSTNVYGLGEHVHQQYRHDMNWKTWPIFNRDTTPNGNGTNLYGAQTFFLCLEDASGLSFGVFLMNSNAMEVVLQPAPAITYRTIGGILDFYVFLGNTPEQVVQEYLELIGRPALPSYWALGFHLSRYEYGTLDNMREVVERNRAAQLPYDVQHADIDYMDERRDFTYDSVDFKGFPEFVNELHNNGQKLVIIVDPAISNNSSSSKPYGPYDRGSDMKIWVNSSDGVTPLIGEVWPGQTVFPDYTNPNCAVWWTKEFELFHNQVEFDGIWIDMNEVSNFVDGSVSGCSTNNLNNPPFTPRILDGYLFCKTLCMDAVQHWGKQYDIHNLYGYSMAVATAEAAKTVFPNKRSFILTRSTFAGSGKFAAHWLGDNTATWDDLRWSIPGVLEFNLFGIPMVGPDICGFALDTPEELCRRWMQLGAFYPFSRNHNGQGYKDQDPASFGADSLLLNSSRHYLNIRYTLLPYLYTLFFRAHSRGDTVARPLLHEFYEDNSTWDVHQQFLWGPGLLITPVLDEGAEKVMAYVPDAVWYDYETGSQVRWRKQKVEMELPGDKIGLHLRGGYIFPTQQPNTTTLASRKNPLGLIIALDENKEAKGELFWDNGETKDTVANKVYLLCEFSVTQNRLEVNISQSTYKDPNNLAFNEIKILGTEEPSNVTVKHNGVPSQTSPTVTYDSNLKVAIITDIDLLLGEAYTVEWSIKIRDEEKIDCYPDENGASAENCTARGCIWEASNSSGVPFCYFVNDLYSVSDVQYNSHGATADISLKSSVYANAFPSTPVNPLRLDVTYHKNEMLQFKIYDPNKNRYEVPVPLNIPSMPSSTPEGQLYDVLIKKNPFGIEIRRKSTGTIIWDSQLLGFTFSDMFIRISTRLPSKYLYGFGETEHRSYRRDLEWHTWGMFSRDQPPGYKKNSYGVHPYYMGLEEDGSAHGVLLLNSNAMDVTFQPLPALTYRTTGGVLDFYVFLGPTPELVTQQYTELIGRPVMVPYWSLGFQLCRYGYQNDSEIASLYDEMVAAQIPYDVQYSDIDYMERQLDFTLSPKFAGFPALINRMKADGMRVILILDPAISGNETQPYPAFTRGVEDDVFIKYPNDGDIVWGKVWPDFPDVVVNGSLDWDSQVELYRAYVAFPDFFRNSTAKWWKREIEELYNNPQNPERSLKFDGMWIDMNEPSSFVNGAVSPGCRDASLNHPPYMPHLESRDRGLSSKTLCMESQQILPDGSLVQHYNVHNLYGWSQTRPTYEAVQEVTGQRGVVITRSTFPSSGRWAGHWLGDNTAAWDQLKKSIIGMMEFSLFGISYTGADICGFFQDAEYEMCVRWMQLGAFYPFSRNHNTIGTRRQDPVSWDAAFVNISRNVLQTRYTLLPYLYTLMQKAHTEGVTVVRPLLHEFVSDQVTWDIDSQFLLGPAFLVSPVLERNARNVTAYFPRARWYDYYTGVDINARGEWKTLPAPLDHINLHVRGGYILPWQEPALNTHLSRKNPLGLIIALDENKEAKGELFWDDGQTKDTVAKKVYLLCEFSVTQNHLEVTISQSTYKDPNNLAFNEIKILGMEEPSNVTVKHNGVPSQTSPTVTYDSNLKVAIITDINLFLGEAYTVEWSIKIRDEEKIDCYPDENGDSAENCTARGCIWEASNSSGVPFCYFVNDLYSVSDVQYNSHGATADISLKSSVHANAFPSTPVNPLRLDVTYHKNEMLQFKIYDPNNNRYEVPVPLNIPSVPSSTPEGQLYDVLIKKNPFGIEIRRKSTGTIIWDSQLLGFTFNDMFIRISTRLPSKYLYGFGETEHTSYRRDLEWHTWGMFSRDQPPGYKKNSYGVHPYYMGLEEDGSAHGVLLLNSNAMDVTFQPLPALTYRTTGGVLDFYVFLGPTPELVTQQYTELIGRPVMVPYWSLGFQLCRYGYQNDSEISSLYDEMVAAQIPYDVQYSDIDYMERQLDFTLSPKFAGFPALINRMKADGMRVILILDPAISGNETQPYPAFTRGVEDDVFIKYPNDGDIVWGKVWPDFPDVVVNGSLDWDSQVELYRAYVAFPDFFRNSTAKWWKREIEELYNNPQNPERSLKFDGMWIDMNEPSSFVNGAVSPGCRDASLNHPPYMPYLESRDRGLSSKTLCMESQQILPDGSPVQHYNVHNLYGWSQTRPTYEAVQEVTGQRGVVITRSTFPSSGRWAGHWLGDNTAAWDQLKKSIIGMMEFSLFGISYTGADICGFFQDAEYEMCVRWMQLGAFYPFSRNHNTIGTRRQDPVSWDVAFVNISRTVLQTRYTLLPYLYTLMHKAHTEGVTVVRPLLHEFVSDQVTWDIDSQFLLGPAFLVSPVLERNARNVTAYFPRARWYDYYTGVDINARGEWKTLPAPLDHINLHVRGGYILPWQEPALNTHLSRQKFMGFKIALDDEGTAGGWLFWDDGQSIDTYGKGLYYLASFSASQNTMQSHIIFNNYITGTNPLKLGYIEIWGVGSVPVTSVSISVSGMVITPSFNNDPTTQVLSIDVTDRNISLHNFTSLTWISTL

This experiment has as its target Maltase-glucoamylase (Homo sapiens, UniProt O43451). Kind of experiment: Inhibition of alpha-glucosidase (unknown origin) preincubated for 5 mins followed by addition of pNPG substrate and measured after 30 mins by spectrophotometric method.
Take `COc1ccc(-c2oc3cc(OC)cc(OC)c3c(=O)c2OCCCCCN2C[C@H](O)[C@@H](O)[C@H](O)[C@H]2CO)cc1`: half-maximal inhibition (IC50) required 40600 nM.

In turn, `COc1ccc(-c2oc3cc(OC)cc(OC)c3c(=O)c2OCCCCCCCCN2C[C@H](O)[C@@H](O)[C@H](O)[C@H]2CO)cc1` showed a concentration for half-maximal inhibition (IC50) of 1780 nM.

`COc1ccc(-c2oc3cc(OC)cc(OC)c3c(=O)c2OCCCCCCCCCCCN2C[C@H](O)[C@@H](O)[C@H](O)[C@H]2CO)cc1` had an IC50 of 240 nM.
